From patent US20170129911A1, “COMPLEXES COMPRISING A PLATINUM COMPOUND AND AN IMMUNE CHECKPOINT INHIBITOR AND RELATED METHODS” (Massachusetts Institute of Technology, priority 2015, published 2017)

What was measured:
SKOV3 cells = experiment: Annexin V/sytox green apoptosis dead cell assay; format: cell-based, human; settings: 72 h of treatment
From the text: Therapeutic nanoparticles (NPs) have been widely investigated for their potential to enhance cancer treatment. The chemical structure of 2 bears both hydrophilic (1-D-MT) and hydrophobic (hexadecyl isocyanate) axial ligands, conferring amphiphilic character to the molecule. In some cases, the hexadecyl isocyanate axial ligand facilitate non-covalent binding to human serum albumin, protecting the Pt(IV) center from premature reduction in blood. In the presence of the biodegradable block copolymer, poly(lactic-co-glycolic acid)-polyethylene glycol (PLGA-PEG), 2 readily self-assembles into NPs suitable for preclinical studies (FIG. 5A). […] Having obtained the nanoparticles, the ability of 2 and its NP to induce apoptosis was investigated. Translocation of phosphatidylserine residues to the exterior is a characteristic of apoptotic cells, which have a compromised cell membrane, and can be detected by annexin V. Using a dual staining annexin V/sytox green apoptosis dead cell assay, we examined the apoptotic behavior of SKOV3 cells after 72 h of treatment with 2 and its NP by flow cytometry.

T-cells = experiment: Mixed leukocyte reaction (T-cell proliferation), PBMC/SKOV3 coculture; format: cell-based, human; settings: SKOV3/MLR coculture, 2 10 μM, 6 days, CFSE flow cytometry
Protocol: To target a key component of the immunosuppression promoting IDO-AHR-IL6 loop, the immunomodulatory phenotype of 2 was investigated. A mixed leukocyte reaction (MLR) was carried out. In this experiment, suspended 2×10^5 peripheral blood mononuclear cells (PBMCs) stimulated with phytohemagglutinin (PHA-P), and 2×10^5 cells of PBMCs from unrelated healthy donors as responders stained with carboxyfluorescein succinimidyl ester (CFSE), a cell permeable fluorescent dye that binds amine residues (mostly lysines) covalently, through its succinimidyl ester group were cocultured with adherent SKOV-3 (2000 cells). After 6 days of culture, PBMCs were harvested by centrifugation of medium, stained with APC-anti CD3 and T-cell proliferation was assessed by flow cytometry. T-cells express CD3, a cell surface multimeric protein complex involved in T-cell development and activation.
SKOV3 cells (2×10^3) were seeded in 6-well plates. […] The T-cell population of PBMCs was measured by FACS Calibur-HTS flow cytometer (BD Biosciences) after staining with APC-anti CD3 antibody. PHA-P stimulated PBMCs (2×10^5) and carboxyfluorescein succinimidyl ester (CFSE) stained PBMCs (2×10^5) from unrelated donors were added in co-cultures of SKOV3 tumor cells (treated and untreated) and incubated for six days at 37° C., the and CFSE signal analyzed by flow cytometry on days 1 and 6.

[1] = Water-octanol partition coefficient (Log P), shake-flask method and GFAAS; settings: octanol/PBS
[2] = Whole human blood stability test; format: in vitro ADME
Protocol: To a volume of 0.8 mL fresh whole human blood (Innovative Research, Novi, Mich.) was added 24 μL of a DMSO solution of 2 (2.0 mM), resulting in a final concentration of 60 μM. After 5 sec of vortexing, a 100 μL aliquot of the blood sample (0 h time point) was immediately transferred to a new tube containing 300 μL of octanol, and the remaining […] of blood was incubated at 37° C. with rotation (1100 rpm). The blood-octanol mixture was vortexed for 2 min at R.T. and then centrifuged to separate the phases. The isolated octanol extract was diluted with methanol for GFAAS measurement. At varying time points (1 h, 2 h, 3 h, 5 h, and 7 h), a 100 μL aliquot was removed from the incubating blood and extracted as described above. For the 7 h sample, analytical HPLC was employed to confirm the integrity of the Pt compound. A standard of 2 and an octanol extract from blank whole human blood were used for comparison.

Question: What does the source list for CCCCCCCCCCCCCCCCNC(=O)[O][Pt]([NH2])([NH2])([Cl])([Cl])[O]C(=O)CCC(=O)NCCOC(=O)[C@H](N)Cc1cn(C)c2ccccc12 (mixture of isomers) [Compound 2, cis,cis,trans-[Pt(NH3)2Cl2(O2CC2H4OCNHC2H4O2C-D-1MT)(O2CNHC16H33)]]?
Answer: induction of apoptosis (SKOV3 cells): induced large populations of SKOV3 cells to undergo apoptosis; alloreactive T-cell proliferation (T-cells): enhancement of alloreactive T-cell proliferation; logP at 3 h [1]: 1.35 ± 0.26; half-life at 60 µM ([2]; fresh whole human blood, whole human blood, 60 μM, 37° C., read-out: t1/2 in human blood (converted)): 2.2 h; stability in blood ([2]; summary statement): stable in blood
